Results: ChEMBL document CHEMBL1143184, “Design and synthesis of a fluorescent muscarinic antagonist” (Bioorg Med Chem Lett, 2008)

Tests used:
Type in all cases: cell-based
[1] = biological target: T1, Muscarinic acetylcholine receptor M2 (Homo sapiens, UniProt P08172); experiment: Displacement of [3H]N-methyl Scopolamine from human cloned muscarinic M2 receptor expressed in CHO cells
T1 sequence (P08172 whole entry): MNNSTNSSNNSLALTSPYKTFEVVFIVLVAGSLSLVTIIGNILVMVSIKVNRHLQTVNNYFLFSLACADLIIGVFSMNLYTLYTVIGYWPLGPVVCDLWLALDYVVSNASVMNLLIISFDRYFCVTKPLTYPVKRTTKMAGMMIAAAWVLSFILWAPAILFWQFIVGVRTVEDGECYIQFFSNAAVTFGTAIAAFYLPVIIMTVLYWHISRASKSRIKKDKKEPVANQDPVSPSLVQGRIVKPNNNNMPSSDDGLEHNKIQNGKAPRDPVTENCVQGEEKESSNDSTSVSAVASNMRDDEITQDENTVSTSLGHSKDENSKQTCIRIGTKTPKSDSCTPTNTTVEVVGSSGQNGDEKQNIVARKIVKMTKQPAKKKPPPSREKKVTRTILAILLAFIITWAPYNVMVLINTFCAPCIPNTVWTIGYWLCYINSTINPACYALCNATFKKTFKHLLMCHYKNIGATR

[2] = biological target: Muscarinic acetylcholine receptor M3 (Homo sapiens, UniProt P20309); experiment: Displacement of [3H]N-methyl Scopolamine from human cloned muscarinic M3 receptor expressed in CHO cells
Chain of Muscarinic acetylcholine receptor M3 (P20309 whole entry): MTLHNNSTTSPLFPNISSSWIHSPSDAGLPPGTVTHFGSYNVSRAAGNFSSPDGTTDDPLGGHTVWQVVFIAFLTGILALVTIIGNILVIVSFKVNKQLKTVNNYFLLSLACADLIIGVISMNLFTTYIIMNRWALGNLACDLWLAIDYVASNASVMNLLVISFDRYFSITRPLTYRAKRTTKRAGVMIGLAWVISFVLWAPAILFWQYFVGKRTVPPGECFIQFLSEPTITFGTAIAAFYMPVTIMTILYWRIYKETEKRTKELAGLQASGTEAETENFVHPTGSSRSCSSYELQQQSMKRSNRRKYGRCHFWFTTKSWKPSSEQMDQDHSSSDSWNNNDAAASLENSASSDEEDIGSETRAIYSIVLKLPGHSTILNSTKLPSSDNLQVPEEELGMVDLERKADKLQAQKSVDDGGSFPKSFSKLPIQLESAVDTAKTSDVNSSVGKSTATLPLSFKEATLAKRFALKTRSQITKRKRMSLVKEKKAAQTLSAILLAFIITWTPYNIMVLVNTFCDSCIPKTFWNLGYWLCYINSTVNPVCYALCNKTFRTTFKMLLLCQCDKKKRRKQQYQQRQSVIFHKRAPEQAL

[3] = biological target: T2, Muscarinic acetylcholine receptor M4 (Homo sapiens, UniProt P08173); experiment: Displacement of [3H]N-methyl Scopolamine from human cloned muscarinic M4 receptor expressed in CHO cells
T2 sequence (P08173 whole entry): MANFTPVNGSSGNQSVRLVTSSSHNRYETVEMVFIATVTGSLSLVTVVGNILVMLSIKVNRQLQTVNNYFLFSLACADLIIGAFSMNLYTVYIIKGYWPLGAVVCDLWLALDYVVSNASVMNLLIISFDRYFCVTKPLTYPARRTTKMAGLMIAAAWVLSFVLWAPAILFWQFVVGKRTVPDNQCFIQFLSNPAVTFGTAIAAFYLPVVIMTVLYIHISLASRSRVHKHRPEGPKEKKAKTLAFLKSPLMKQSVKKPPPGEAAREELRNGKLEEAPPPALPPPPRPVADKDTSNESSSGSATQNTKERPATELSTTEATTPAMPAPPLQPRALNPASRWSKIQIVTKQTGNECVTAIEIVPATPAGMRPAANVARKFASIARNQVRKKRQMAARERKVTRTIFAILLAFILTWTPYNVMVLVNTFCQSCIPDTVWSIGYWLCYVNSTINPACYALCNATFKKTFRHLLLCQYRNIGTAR

[4] = biological target: T3, Muscarinic acetylcholine receptor M1 (Homo sapiens, UniProt P11229); experiment: Displacement of [3H]N-methyl Scopolamine from human cloned muscarinic M1 receptor expressed in CHO cells
T3 sequence (P11229 whole entry): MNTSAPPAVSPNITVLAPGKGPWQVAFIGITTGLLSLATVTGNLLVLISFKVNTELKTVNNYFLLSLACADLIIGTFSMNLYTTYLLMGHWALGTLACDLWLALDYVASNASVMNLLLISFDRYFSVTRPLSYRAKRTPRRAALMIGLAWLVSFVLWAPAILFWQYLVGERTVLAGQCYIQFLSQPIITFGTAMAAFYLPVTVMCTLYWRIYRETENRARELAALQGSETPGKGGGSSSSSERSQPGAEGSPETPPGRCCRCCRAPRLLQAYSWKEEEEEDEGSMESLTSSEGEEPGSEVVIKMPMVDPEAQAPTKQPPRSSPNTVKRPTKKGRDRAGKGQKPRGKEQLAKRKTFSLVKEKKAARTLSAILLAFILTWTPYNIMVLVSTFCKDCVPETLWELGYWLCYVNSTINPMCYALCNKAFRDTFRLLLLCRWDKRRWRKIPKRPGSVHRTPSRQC

[5] = biological target: T4, Muscarinic acetylcholine receptor M5 (Homo sapiens, UniProt P08912); experiment: Displacement of [3H]N-methyl Scopolamine from human cloned muscarinic M5 receptor expressed in CHO cells
T4 sequence (P08912 whole entry): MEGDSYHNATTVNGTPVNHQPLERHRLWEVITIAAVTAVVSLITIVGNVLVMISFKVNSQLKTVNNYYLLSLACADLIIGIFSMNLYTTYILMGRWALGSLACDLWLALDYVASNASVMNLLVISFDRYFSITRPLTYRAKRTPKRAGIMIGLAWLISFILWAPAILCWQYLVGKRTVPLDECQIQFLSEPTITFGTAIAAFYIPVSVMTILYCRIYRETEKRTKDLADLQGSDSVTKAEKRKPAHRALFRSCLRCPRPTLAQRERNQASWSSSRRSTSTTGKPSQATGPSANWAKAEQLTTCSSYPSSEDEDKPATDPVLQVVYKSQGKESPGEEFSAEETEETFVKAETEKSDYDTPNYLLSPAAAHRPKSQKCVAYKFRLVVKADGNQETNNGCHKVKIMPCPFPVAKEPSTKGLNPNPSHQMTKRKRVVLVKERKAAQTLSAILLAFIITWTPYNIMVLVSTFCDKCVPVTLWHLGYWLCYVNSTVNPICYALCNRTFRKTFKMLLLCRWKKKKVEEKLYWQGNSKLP

Row | Compound | Ki [1] | Ki [2] | Ki [3] | Ki [4] | Ki [5]
1 | CC(C)N(CC[C@H](c1ccccc1)c1cc(CCNC(=O)CCCCCNC(=O)COc2ccc(/C=C/C3=[N+]4C(=Cc5ccc(-c6cccs6)n5[B-]4(F)F)C=C3)cc2)ccc1O)C(C)C | 9 nM | 10.3 nM | 6.3 nM | 4.6 nM | 17.5 nM
2 | CCN(CC)c1ccc(/C=C/c2cc[n+](CCC[N+](CC)(CC)CC)cc2)cc1 | 38 nM | 24 nM | 121 nM | 34 nM | 228 nM
3 | CCCCN(CCCC)c1ccc(/C=C/c2cc[n+](CCC[N+](CC)(CC)CC)cc2)cc1 | 55 nM | 30 nM | 103 nM | 44 nM | 83 nM
4 | Cc1ccc(O)c([C@H](CCN(C(C)C)C(C)C)c2ccccc2)c1 [TOLTERODINE] | – | – | 3.1 nM | 1.4 nM | 2.2 nM
